Data taken from patent publication US20070117743A1, “New antitumoral compounds” (priority 2003, published 2007).
Where a SMILES comes first, the peptide text is derived from it. Bridges are numbered along the chain shown (N, C = ends). [ ]: non-standard residue; d: D form. The star is where a group is joined. d(aIle) = CC[C@H](C)[C@@H](N)C(=O)O; d(aThr) = C[C@@H](O)[C@@H](N)C(=O)O; Hexanoyl(5-Me) = CC(C)CCCC(=O)*; Orn = NCCC[C@H](N)C(=O)O; Dhb = C/C=C(\N)C(=O)O

Columns and labels:
Type in all cases: cell-based, human
[1] = tested on: HT-29; assay: SRB colorimetric assay of cell growth and viability, HT-29; conditions: HT-29, 48 hours exposure
[2] = tested on: PANC-1; assay: SRB colorimetric assay of cell growth and viability, PANC-1; conditions: PANC-1, 48 hours exposure
[3] = tested on: SK-MEL-28; assay: SRB colorimetric assay of cell growth and viability, SK-MEL-28; conditions: MEL-28, 48 hours exposure
[4] = tested on: K-562; assay: SRB colorimetric assay of cell growth and viability, K-562; conditions: K-562, 48 hours exposure
[5] = tested on: A-549; assay: SRB colorimetric assay of cell growth and viability, A-549; conditions: A-549, 48 hours exposure
[6] = tested on: DU-145; assay: SRB colorimetric assay of cell growth and viability, DU-145; conditions: DU-145; 48 hours exposure
[7] = tested on: LoVo-Dox; assay: SRB colorimetric assay of cell growth and viability, LoVo-Dox; conditions: LOVO-DOX, 48 hours exposure
How it was run: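 Optical density at 490 nm of solubilized SRB, from triplicate wells, yields GI, TGI and LC values. Before staining, cells are fixed for 60 minutes at 4° C in cold TCA after a 48-hour exposure.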

[8] = tested on: HeLa; assay: SRB colorimetric assay of cell growth and viability, HeLa; conditions: HELA, 48 hours exposure
[9] = tested on: SK-BR-3; assay: SRB colorimetric assay of cell growth and viability, SK-BR-3; conditions: SK-BR-3; 48 hours exposure
[10] = tested on: LNCaP; assay: SRB colorimetric assay of cell growth and viability, LNCaP; conditions: LN-caP, 48 hours exposure
[11] = tested on: IGROV-ET; assay: SRB colorimetric assay of cell growth and viability, IGROV-ET; conditions: IGROV-ET, 48 hours exposure
[12] = tested on: HeLa-APL; assay: SRB colorimetric assay of cell growth and viability, HeLa-APL; conditions: HELA-APL, 48 hours exposure
[13] = tested on: IGROV-1; assay: SRB colorimetric assay of cell growth and viability, IGROV-1; conditions: IGROV; 48 hours exposure

## C/C=C1\NC(=O)[C@H](Cc2ccccc2)NC(=O)[C@@H](C(C)C)NC(=O)[C@@H]([C@@H](C)CC)NC(=O)[C@H](NC(=O)[C@H](NC(=O)[C@H](CCCN)NC(=O)[C@H]2CCCN2C(=O)[C@H](NC(=O)[C@@H](NC(=O)[C@H](CC(C)C)NC(=O)[C@H](NC(=O)CCCC(C)C)C(C)C)C(C)C)C(C)C)[C@@H](C)CC)[C@@H](C)OC(=O)[C@H](C(C)C)NC1=O [Compound 113, [Leu^12]-KF] ({Hexanoyl(5-Me)}-[dV]LV[dV][dP][Orn][d(aIle)][d(aThr)][d(aIle)][dV]F[Dhb]V; ester 8-C)
[1]
  TGI HT-29: 1.76E−06 Molar
[1]; read-out: GI50 HT-29
  GI50: 0.691 µM
[1]; read-out: LC50 HT-29
  CC50: 4.5 µM
[2]
  GI50: 1.82 µM
  TGI PANC-1: 4.89E−06 Molar
[2]; read-out: LC50 PANC-1
  CC50: 6.71 µM
[3]
  GI50: 1.42 µM
  TGI MEL-28: 2.77E−06 Molar
[3]; read-out: LC50 MEL-28
  CC50: 5.37 µM
[4]
  GI50: 1.84 µM
  TGI K-562: 3.24E−06 Molar
[4]; read-out: LC50 K-562
  CC50: 5.72 µM
[5]
  TGI A-549: 2.95E−06 Molar
[5]; read-out: GI50 A-549
  GI50: 1.44 µM
[5]; read-out: LC50 A-549
  CC50: 6.04 µM
[6]
  GI50: 0.906 µM
  LC50 (concentration causing 50% net cell kill): 5.09 µM
  TGI DU-145: 2.14E−06 Molar
[7]
  GI50: 0.226 µM
  TGI LOVO-DOX: 6.11E−07 Molar
[7]; read-out: LC50 LOVO-DOX
  CC50: 6.71 µM
[8]
  GI50: 0.191 µM
  TGI HELA: 4.95E−07 Molar
[8]; read-out: LC50 HELA
  CC50: 5.79 µM
[9]
  GI50: 0.292 µM
  LC50: 6.71 µM
  TGI SK-BR-3: 6.13E−07 Molar
[10]
  GI50: 0.906 µM
  TGI LN-caP: 2.20E−06 Molar
[10]; read-out: LC50 LN-caP
  CC50: 5.32 µM
[11]
  GI50: 0.926 µM
  TGI IGROV-ET: 2.48E−06 Molar
[11]; read-out: LC50 IGROV-ET
  CC50: 6.62 µM
[12]
  GI50: 1.19 µM
  TGI HELA-APL: 2.59E−06 Molar
[12]; read-out: LC50 HELA-APL
  CC50: 5.66 µM
[13]
  GI50: 0.415 µM
  LC50 (concentration causing 50% net cell killing): 6.71 µM
  TGI IGROV: 1.70E−06 Molar
